Data published in patent publication US20250066386A1, “INHIBITORS OF KRAS” (BIOMEA FUSION, INC., priority 2022, published 2025).
Where two headings read alike, the source gives them in different places.

How the values were obtained:
[1] = 18-membered ring, DCM, 25.0 °C
[2] = system: human KRAS G12D mutated cell line SUIT-2; assay: KRas G12D in vitro inhibitory activity: cell proliferation, CellTiter-Glo; assay type: cell-based; conditions: 7 day inhibition of cell proliferation, medium and compound renewed on day 3, CellTiter-Glo luminescence
Description: (§1) The present example evaluates the ability of compounds provided herein to inhibit proliferation of KRAS mutant cells.
The proliferation inhibitory effect was investigated in the human KRAS G12D mutated cell line SUIT-2 (Iwamura et al., 1987, Jpn. J. Cancer Res. 78.54-62; JCRB catalog no. JCRB1094). Cells were maintained in RPMI-1640 medium (ThermoFisher catalog no. 61870036) supplemented with 10% of Heat Inactivated FBS (ThermoFisher catalog no. A31605) and 1% Pen-Strep (ThermoFisher catalog no. 10378016) and cultured at 37° C. in a humidified incubator with 5% CO2. Cells were grown by adhering to culture flasks, and maintained at 70%-80% confluency.
(§2) ATP is present in all metabolically active cells and is considered as a marker for viable cells. The number of metabolically active live cells in culture was determined using the CellTiter-Glo kit (Promega catalog no. G7572), an ATP monitoring system based on the production of luminescence by the reaction of ATP with added UltraGlo® recombinant luciferase (Kawano et al., 2016, PLOS One, 8; 11(7):e0158888), according to the supplier's experimental recommendations. The cell proliferation assay was based on a 96 well plate format.
(§3) Test compounds were dissolved at 10 mM in DMSO (Sigma catalog no. D8418; purity >99.9%) and stored at −20° C. Eight concentrations of test compound were assessed in duplicate in an individual test occasion in parallel in the selected cell lines. MRTX-849 and AMG-510 were used as reference compounds and tested in duplicate at eight concentrations. 100% of proliferation is represented by the untreated cells (0.1% DMSO).
(§4) On the day of the experiment (TO), cells were detached with TrypLE (ThermoFisher catalog no. 12604054) quantified using the cell viability analyzer NucleoCounter (Chemometec NC-200) and resuspended in fresh medium at a cell density of about 1000 cells per 200 μL medium. 200 μL of cell suspension were added to each well of a 96 well plate.
Two 2 hours after seeding cells, compounds were added at desired concentrations using a D300e compound dispenser (Life Sciences Tecan D300) with shaking after each compound addition. Assay plates were incubated at 37° C. in a humidified incubator with 5% CO2.
On day 3 (T3), 150 μL of growth media was removed from each well of the assay plates and replaced with 150 uL fresh growth media, and fresh compounds added using a D300e compound dispenser (Life Sciences Tecan D300) at desired concentrations with shaking between each compound addition. […] Luminescence was read using a GloMax GM300 plate reader (Promega) using the luminescence for 96 well plate standard protocol. […]
(§5) Results were analyzed by GraphPad (Prism) and IC50 values were calculated by non-linear regression using four parameter-logistic equation. […]

[3] = system: human KRAS G12C mutated cell line MIA PaCa-2; assay: KRas G12C in vitro inhibitory activity: cell proliferation, CellTiter-Glo; assay type: cell-based
Description: as §1
The inhibitory effect on cell proliferation was investigated in the human KRAS G12C mutated cell line MIA PaCa-2 (Yunis et al., 1977, Int. J. Cancer 19(1):128-135; ATCC catalog no. CRL-1420). Cells were maintained in RPMI-1640 medium (ThermoFisher catalog no. 61870036) supplemented with 10% of Heat Inactivated FBS (ThermoFisher catalog no. A31605) and 1% Pen-Strep (ThermoFisher catalog no. 10378016) and cultured at 37° C. in a humidified incubator with 5% CO2. Cells were grown by adhering to culture flasks, and maintained at 70%-80% confluency.
as §2
as §3, with “(0.2%” for “(0.1%”
as §4, with “12604054),” for “12604054)”, “analyser” for “analyzer”, “5000” for “1000”
Two hours after seeding cells, compounds were added at desired concentrations using a D300e compound dispenser (Life Sciences Tecan D300) with shaking after each compound addition. Assay plates were incubated at 37° C. in a humidified incubator with 5% CO2.
(§6) To measure 3 day inhibition of cell proliferation on day 3 (T3), assay plates were equilibrated to room temperature for approximately 15 min, and the Promega CellTiterGlo® reagent was added at 40 μL/well. Contents were mixed for 5 min on an orbital shaker to induce cell lysis, and then incubated at room temperature for an additional 10 min in the dark to stabilize the luminescent signal. Luminescence was read using a GloMax GM300 plate reader (Promega) using the luminescence for 96 well plate standard protocol.
as §6, with “measure 7” for “measure 3”, “(T3), 150 μL of growth media was removed from each well of the assay plates and replaced with 150 uL fresh growth media, and fresh compounds added using a D300e compound dispenser (Life Sciences Tecan D300) at desired concentrations with shaking between each compound addition. Assay plates were incubated at 37° C. in a humidified incubator with 5% CO2. On day 7 (T7)” for “(T3),”
Data was expressed as % of inhibition compared to the 0.2% DMSO negative no drug control, and is calculated as follows: % inhibition=100−[(RLU sample)×100/(RLU average controls*)], where * indicates the average for 0.2% DMSO.
as §5

[4] = Homo sapiens, MIA PaCa-2, 72 h, 3 day inhibition of cell proliferation, CellTiter-Glo luminescence, read-out: MIA PaCa-2 Day 3 IC50
[5] = Homo sapiens, MIA PaCa-2, 7 day inhibition of cell proliferation, medium and compound renewed on day 3, CellTiter-Glo luminescence, read-out: MIA PaCa-2 Day 7 IC50

| Compound | IC50 [3, 4] | IC50 [3, 5] | IC50 [2] | also measured |
| --- | --- | --- | --- | --- |
| CCn1c(-c2cccnc2[C@H](C)OC)c2c3cc(ccc31)-c1cccc(c1)C[C@H](NC(=O)OC(C)(C)C)C(=O)N1CC[C@@H](C1)C(=O)OCC(C)(C)C2 |  |  |  | ring closure, isolated yield ([1]; from CCn1c(-c2cccnc2[C@H](C)OC)c(CC(C)(C)CO)c2cc(-c3cccc(C[C@H](NC(=O)OC(C)(C)C)C(=O)N4CC[C@H](C(=O)O)C4)c3)ccc21, ester bond, EDC/HOBT/DIPEA, 47.2 mM, 16.0 h, 2 steps): 60% |
| CCn1c(-c2cccnc2[C@H](C)OC)c2c3cc(ccc31)-c1cccc(c1)C[C@H](NC(=O)OCc1ccccc1)C(=O)N1CCC[C@@H](CC(=O)OC(C)(C)C2)C1 |  |  |  | ring closure, isolated yield ([1]; from CCn1c(-c2cccnc2[C@H](C)OC)c(CC(C)(C)OC(=O)C[C@@H]2CCCNC2)c2cc(-c3cccc(C[C@H](NC(=O)OCc4ccccc4)C(=O)O)c3)ccc21, amide bond, T3P/DIPEA, 32.3 mM, 1.0 h, 3 steps): 44% |
| CCn1c(-c2cccnc2[C@H](C)OC)c2c3cc(ccc31)-c1cccc(c1)C[C@H](NC(=O)[C@H](C(C)C)N(C)C(=O)[C@H]1CCN(C(=O)C#CCN3CCOCC3)C1)C(=O)N1CCC[C@H](C1)C(=O)OCC(C)(C)C2 (atropisomer, axis not shown) [Compound 1, (3S)—N-((2S)-1-(((6^3R,4S)-1^1-ethyl-1^2-(2-((S)-1-methoxyethyl)pyridin-3-yl)-10,10-dimethyl-5,7-dioxo-1^1H-8-oxa-1(5,3)-indola-6(1,3)-piperidina-2(1,3)-benzenacycloundecaphane-4-yl)amino)-3-methyl-1-oxobutan-2-yl)-N-methyl-1-(4-morpholinobut-2-ynoyl)pyrrolidine-3-carboxamide] |  |  | > 100 nM | IC50 ([3]; 7 day inhibition of cell proliferation, medium and compound renewed on day 3, CellTiter-Glo luminescence, read-out: MIA PaCa-2 Day 7 IC50): 10 to 100 nM |
| CCn1c(-c2cccnc2[C@H](C)OC)c2c3cc(ccc31)-c1cccc(c1)C[C@H](NC(=O)[C@H](C(C)C)N(C)C(=O)[C@H]1CCN(C(C)C#CC(=O)N(C)C)C1)C(=O)N1CCC[C@H](N1)C(=O)OCC(C)(C)C2 (stereo partly drawn) [Compound 5] | 1 to 10 nM | 10 to 100 nM | > 100 nM |  |

Second part, led by results:

| IC50 [3, 4] | IC50 [3, 5] | Compound | IC50 [2] | also measured |
| --- | --- | --- | --- | --- |
| 1 to 10 nM | 1 to 10 nM | CCn1c(-c2cccnc2[C@H](C)OC)c2c3cc(ccc31)-c1cccc(c1)C[C@H](NC(=O)[C@H](C(C)C)N(C)C(=O)[C@H]1CCN(CC#CC(=O)N(C)C)C1)C(=O)N1CCC[C@H](N1)C(=O)OCC(C)(C)C2 (atropisomer, axis not shown) [Compound 3, (3S)-1-(4-(dimethylamino)-4-oxobut-2-yn-1-yl)-N-((2S)-1-(((6^3S,4S)-1^1-ethyl-1^2-(2-((S)-1-methoxyethyl)pyridin-3-yl)-10,10-dimethyl-5,7-dioxo-6^1,6^2,6^3,6^4,6^5,6^6-hexahydro-1^1H-8-oxa-1(5,3)-indola-6(1,3)-pyridazina-2(1,3)-benzenacycloundecaphane-4-yl)amino)-3-methyl-1-oxobutan-2-yl)-N-methylpyrrolidine-3-carboxamide] | > 100 nM |  |
|  | > 100 nM | CCn1c(-c2cccnc2[C@H](C)OC)c2c3cc(ccc31)-c1cccc(c1)C[C@H](NC(=O)[C@H](C(C)C)N(C)C(=O)[C@H]1CCN(C(=O)C#CC(=O)N(C)C)C1)C(=O)N1CCC[C@H](N1)C(=O)OCC(C)(C)C2 (atropisomer, axis not shown) [Compound 4] | > 100 nM |  |
